# Tests used:
# [1] = system: Escherichia coli; assay: Antibacterial activity against Escherichia coli BW25113 harboring deltatolC by broth microdilution method; assay type: functional
# [2] = system: Escherichia coli; assay: Antibacterial activity against permeabilized Escherichia coli IBAS849 by broth microdilution method; assay type: functional
# [3] = Inhibition of Escherichia coli parE assessed as release of inorganic phosphate from ATP hydrolysis after 30 mins by coupled spectrophotometric assay
# [4] = system: Escherichia coli; assay: Antibacterial activity against wild type Escherichia coli ATCC 25922 by broth microdilution method; assay type: functional
# [5] = Inhibition of Escherichia coli GyrB assessed as release of inorganic phosphate from ATP hydrolysis after 30 mins by coupled spectrophotometric assay
# [6] = system: Staphylococcus aureus; assay: Antibacterial activity against Staphylococcus aureus ATCC 13709 by broth microdilution method; assay type: functional
# [7] = system: Pseudomonas aeruginosa; assay: Antibacterial activity against Pseudomonas aeruginosa PAO1 by broth microdilution method; assay type: functional
# [8] = system: Klebsiella pneumoniae; assay: Antibacterial activity against Klebsiella pneumoniae ATCC 700603 by broth microdilution method; assay type: functional
# [9] = system: Staphylococcus aureus; assay: Antibacterial activity against Staphylococcus aureus ATCC 13709 by broth microdilution method in presence of 20% mouse serum; assay type: functional
# [10] = system: Acinetobacter baumannii; assay: Antibacterial activity against Acinetobacter baumannii ATCC 19606 by broth microdilution method; assay type: functional; conditions: ATCC 19606 = CIP 70.34 = JCM 6841
# [11] = system: Streptococcus pneumoniae; assay: Antibacterial activity against Streptococcus pneumoniae ATCC 51916 by broth microdilution method; assay type: functional
# [12] = system: Escherichia coli; assay: Antibacterial activity against wild type Escherichia coli ATCC 25922 by broth microdilution method in presence of 20% mouse serum; assay type: functional
# [13] = system: Haemophilus influenzae; assay: Antibacterial activity against Haemophilus influenzae ATCC 49247 by broth microdilution method; assay type: functional
# [14] = Inhibition of Francisella tularensis parE assessed as release of inorganic phosphate from ATP hydrolysis after 30 mins by coupled spectrophotometric assay
# [15] = Inhibition of Francisella tularensis GyrB assessed as release of inorganic phosphate from ATP hydrolysis after 30 mins by coupled spectrophotometric assay
Compound,MIC [1] [µg/mL],MIC [2] [µg/mL],Ki [3] [nM],MIC [4] [µg/mL],Ki [5] [nM],MIC [6] [µg/mL],MIC [7] [µg/mL],MIC [8] [µg/mL],MIC [9] [µg/mL],MIC [10] [µg/mL],MIC [11] [µg/mL],MIC [12] [µg/mL],MIC [13] [µg/mL],Ki [14] [nM],Ki [15] [nM]
CCc1[nH]c2nc(Sc3ccc4c(c3)C(=O)NC4)nc(N3C[C@@H]4[C@@H](N)[C@@H]4C3)c2c1Cl,1,4,8,32,4,0.5,,,,,,,,,
CCc1[nH]c2nc(Oc3cnc4ccc[n+]([O-])c4c3)nc(N3CC[C@@H](N)C3)c2c1Cl,0.5,1,4.6,4,< 0.3,0.13,16,32,0.13,8,1,2,4,1.1,
CCc1[nH]c2nc(Sc3ccc4ccc[n+]([O-])c4c3)nc(N3C[C@@H]4[C@@H](N)[C@@H]4C3)c2c1Cl,0.25,1,< 1,8,< 0.5,≤ 0.13,,,,,,,,,
CCc1[nH]c2nc(Sc3ccc4[nH]cc(C(=O)O)c(=O)c4c3)nc(N3CCC(N)C3)c2c1Cl (stereo unspecified),> 64,> 64,1,> 64,< 0.5,> 64,,,,,,,,,
CCc1[nH]c2nc(Sc3cnc4nccnc4c3)nc(N3CCC4(CCCN4)C3)c2c1Cl (stereo unspecified),8,16,35,> 64,,4,,,,,,,,,6
CCc1[nH]c2nc(Sc3ccc4c(N5CC(N)C5)ncnc4c3)nc(N3CCC(N)C3)c2c1Cl (stereo unspecified),4,8,7,8,< 0.5,16,,,,,,,,,
CCc1[nH]c2nc(Sc3cnc4nccnc4c3)nc(N3C[C@@H]4[C@H](C3)[C@@]4(N)C(N)=O)c2c1Cl,0.25,2,< 1,> 64,,0.25,,,,,,,,,
CCc1[nH]c2nc(Sc3cnc4nccnc4c3)nc(N3CC(C)(N)C3)c2c1Cl,16,16,69,> 64,,4,,,,,,,,,16
CCc1[nH]c2nc(Sc3ccc4nccnc4c3)nc(N3C[C@@H]4[C@@H](N)[C@@H]4C3)c2c1Cl,0.25,0.25,1,> 64,< 0.5,≤ 0.13,,,,,,,,,
CCc1[nH]c2nc(Sc3ccc4ccc(C(=O)O)nc4c3)nc(N3CCC(N)C3)c2c1Cl (stereo unspecified),8,> 64,2,> 64,< 0.5,2,,,,,,,,,
CCc1[nH]c2nc(Sc3cnc4nccnc4c3)nc(N3CCC(N)C3)c2c1Cl (stereo unspecified),2,4,11,32,,1,,,,,,,,,< 1
CCc1[nH]c2nc(Sc3cnc4nccnc4c3)nc(N3CC(NC(=O)COC)C3)c2c1Cl,2,4,10,> 64,,0.25,,,,,,,,,< 1
CCc1[nH]c2nc(Sc3cccnc3)nc(Cl)c2c1Cl,,> 64,,> 64,,4,,,,,,,,,488
CCc1[nH]c2nc(Sc3cnc4nccnc4c3)nc(N3CC4CNC4C3)c2c1Cl (stereo unspecified),1,2,2,16,,0.5,,,,,,,,,< 1
CCc1[nH]c2nc(Sc3cnc4nccnc4c3)nc(NC[C@H](C)O)c2c1Cl,4,8,,> 64,,1,,,,,,,,23,43
CCc1[nH]c2nc(Sc3cncc(S(=O)(=O)N(C)C)c3)nc(N3C[C@@H]4[C@@H](N)[C@@H]4C3)c2c1Cl,4,32,19,> 64,2,2,,,,,,,,,
CCc1[nH]c2nc(Sc3cnc4c(c3)c(=O)ncn4C)nc(N3C[C@@H]4[C@@H](N)[C@@H]4C3)c2c1Cl,2,2,3,32,5,0.5,,,,,,,,,
CCc1[nH]c2nc(Sc3cnc4nccnc4c3)nc(N3C[C@@H]4[C@H](C3)[C@@]4(N)CO)c2c1Cl,0.5,4,2,64,,0.25,,,,,,,,,< 1
CCc1[nH]c2nc(Sc3ccc4c(N5CCC(N)C5)nc(C(=O)O)nc4c3)nc(N3CCC(N)C3)c2c1Cl (stereo unspecified),8,4,1,8,< 0.5,8,,,,,,,,,

Compound,MIC [1] [µg/mL],MIC [2] [µg/mL],Ki [3] [nM],MIC [4] [µg/mL],Ki [5] [nM],MIC [6] [µg/mL],MIC [7] [µg/mL],MIC [8] [µg/mL],MIC [9] [µg/mL],MIC [10] [µg/mL],MIC [11] [µg/mL],MIC [12] [µg/mL],MIC [13] [µg/mL],Ki [14] [nM],Ki [15] [nM]
CCc1[nH]c2nc(Sc3ccc4c(N)nc(C)nc4c3)nc(N3CCC(N)C3)c2c1Cl (stereo unspecified),2,8,2,16,< 0.5,2,,,,,,,,,
CCc1[nH]c2nc(Sc3ccc4cccnc4c3)nc(N3C[C@@H]4[C@@H](N)[C@@H]4C3)c2c1Cl,1,4,6,> 64,1,0.25,,,,,,,,,
CCc1[nH]c2nc(Sc3cnc4nccnc4c3)nc(N3C[C@@H]4[C@H](C3)[C@H]4NC(=N)N)c2c1Cl,2,2,< 1,64,,0.25,,,,,,,,,
CCc1[nH]c2nc(Sc3cnc4nccnc4c3)nc(N3CCCC(N)C3)c2c1Cl (stereo unspecified),16,32,131,> 64,,8,,,,,,,,,7
CCc1[nH]c2nc(Sc3cnc4nccnc4c3)nc(N3CC4CCNC4C3)c2c1Cl (stereo unspecified),2,4,6,32,,1,,,,,,,,,< 1
CCc1[nH]c2nc(Sc3cnc4nccnc4c3)nc(N3CCC(NC)C3)c2c1Cl (stereo unspecified),8,16,40,> 64,,2,,,,,,,,,2
CCc1[nH]c2nc(Sc3cnc4ccc[n+]([O-])c4c3)nc(N3C[C@@H]4[C@@H](N)[C@@H]4C3)c2c1Cl,0.13,0.13,1.7,2,< 0.3,0.03,4,32,0.13,4,0.25,4,2,2.5,
CCc1[nH]c2nc(Sc3cccnc3)nc(NC[C@H](C)O)c2c1Cl,,32,,> 64,,4,,,,,,,,173,171
CCc1[nH]c2nc(Sc3ccc4cc5c([n+]([O-])c4c3)CCNC5)nc(N3CCC(N)C3)c2c1Cl (stereo unspecified),4,16,6,16,< 0.5,2,,,,,,,,,
CCc1[nH]c2nc(Sc3cnc4nccnc4c3)nc(N3C[C@@H]4[C@@H](N)[C@@H]4C3)c2c1Cl,0.5,0.5,1,8,< 0.5,0.13,,,,,,,,,< 1
CCc1[nH]c2nc(Sc3cnc4nccnc4c3)nc(N3CC4CNCC4C3)c2c1Cl (stereo unspecified),8,8,17,> 64,,2,,,,,,,,,< 1
CCc1[nH]c2nc(Sc3cnc4nccnc4c3)nc(N3CC(NS(C)(=O)=O)C3)c2c1Cl,,32,9,> 64,,4,,,,,,,,,< 1
CCNC(=O)NC1CN(c2nc(Sc3cnc4nccnc4c3)nc3[nH]c(CC)c(Cl)c23)C1,> 64,> 64,2,> 64,,> 64,,,,,,,,,< 1
CCc1[nH]c2nc(Sc3cnc4nccnc4c3)nc(N3CC(NC(=O)C4CC4)C3)c2c1Cl,4,8,3,> 64,,1,,,,,,,,,< 1
CCc1[nH]c2nc(Sc3cnc4nccnc4c3)nc(N3CC(O)C3)c2c1Cl,2,4,,> 64,,0.25,,,,,,,,5,7
CCc1[nH]c2nc(Oc3cnc4cccnc4c3)nc(N3C[C@@H]4[C@@H](N)[C@@H]4C3)c2c1Cl,≤ 0.06,1,0.9,4,< 0.3,≤ 0.06,8,32,0.13,4,≤ 0.06,4,1,0.6,
CCc1[nH]c2nc(Sc3cnc4nccnc4c3)nc(N3CC(NC(=O)c4cnccn4)C3)c2c1Cl,4,8,9,64,,1,,,,,,,,,< 1
CCc1[nH]c2nc(Sc3cnc4nccnc4c3)nc(N3CC(N)C3)c2c1Cl,4,8,,64,,1,,,,,,,,5,7

# — ChEMBL document CHEMBL2331254, “Pyrrolopyrimidine inhibitors of DNA gyrase B (GyrB) and topoisomerase IV (ParE), Part II: development of inhibitors with broad spectrum, Gram-negative antibacterial activity” (Bioorg Med Chem Lett, 2013)
